Experimental findings from patent publication US10828301B2, “2,4-pyrimidinediamine compounds and their uses” (Rigel Pharmaceuticals, Inc, priority 2002, dated 2020) are described below.

Type in all cases: cell-based
The subject of test [1] is bone marrow derived mast cells (BMMC). Briefly: BMMC high cell density IgE activation: degranulation (hexosiminidase, histamine), leukotriene (LTC4) and cytokine (TNFalpha, IL-6) assays. Particulars: Mus musculus, anti-IgE activation. The procedure: After sensitizing, cells are counted, pelleted (1000 rpm, 5-10 minutes), and resuspended at 1-3×10^6 cells/ml in MT buffer. Add 100 ul of cell suspension to each well and 100 ul of compound dilutions. The final vehicle concentration is 0.5% DMSO. Incubate at 37° C. (5% CO2) for 1 hour. After 1 hour of compound treatment, stimulate cells with 6× stimulus (60 ng/ml DNP-BSA). Mix wells with the cells and allow plates to incubate at 37° C. (5% CO2) for one hour. After 1 hour incubation, pellet cells (10 minutes, 1000 RPM) and collect 200 ul per well of the supernatant, being careful not to disturb pellet, and transfer to a clean tube or 96-well plate. Place the supernatant plate on ice. During the 4-5 hour step (see next) perform the hexosiminidase assay. Resuspend cell pellet in 240 ul WEI-conditioned media containing 0.5% DMSO and corresponding concentration of compound. Incubate BMMC cells for 4-5 hours at 37° C. (5% CO2). After incubation, pellet cells (1000 RPM, 10 minutes) and collect 225 ul per well and place in −80° C. until ready to perform ELISAS. ELISAS are performed on appropriately diluted samples (determined empirically for each donor cell population so that the sample measurement falls within the standard curve) following the supplier's instructions.
Add 50 uL of BMMC cell supernatant (see above) to the hexoseaminidase substrate, place at 37° C. for 30 minutes and read the plate at 5, 10, 15, and 30 minutes on a spectrophotometer.

The test system of test [2] is cultured human mast cells (CHMC). Description: CHMC low cell density IgE activation: tryptase and LTC4 assays. Particulars: Homo sapiens, Mast cell, Low Density CHMC, anti-IgE activation. An outline of the steps: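 Degranulation measured after 30 min anti-IgE challenge at 37° C of CHMC plated at 1000-1500 cells/well following 1 h preincubation. Readouts: LTC4 by ELISA on donor-specific diluted supernatants, and tryptase activity from a 30 min room-temperature substrate reaction.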

Test [3] shares this test system. Description: CHMC low cell density ionomycin activation: tryptase assay. As to conditions: Homo sapiens, Mast cell, Low Density CHMC, ionomycin activation, tryptase readout; read-out: CHMC Ionomycin Tryptase.
Test [4] has the same test system. Description: CHMC high cell density IgE activation: degranulation (hexos, tryptase, histamine), leukotriene (LTC4) and cytokine (TNFalpha, IL-13) assays. Particulars: anti-IgE activation. The procedure:
After sensitizing, cells are counted, pelleted (1000 rpm, 5-10 minutes), and resuspended at 1-2×10^6 cells/ml in MT buffer. Add 100 ul of cell suspension to each well and 100 ul of compound dilutions. The final vehicle concentration is 0.5% DMSO. Incubate at 37° C. (5% CO2) for 1 hour. After 1 hour of compound treatment, stimulate cells with 6× anti-IgE. Mix wells with the cells and allow plates to incubate at 37° C. (5% CO2) for one hour. After 1 hour incubation, pellet cells (10 minutes, 1000 RPM) and collect 200 ul per well of the supernatant, being careful not to disturb pellet. Place the supernatant plate on ice. During the 7-hour step (see next) perform tryptase assay on supernatant that had been diluted 1:500. Resuspend cell pellet in 240 ul of CM media containing 0.5% DMSO and corresponding concentration of compound. Incubate CHMC cells for 7 hours at 37° C. (5% CO2). After incubation, pellet cells (1000 RPM, 10 minutes) and collect 225 ul per well and place in −80° C. until ready to perform ELISAS. ELISAS are performed on appropriately diluted samples (determined empirically for each donor cell population so that the sample measurement falls within the standard curve) following the supplier's instructions.

Where [5] appears, read: IL-6 release, read-out: BMMC anti-IgE IL-6 IC50.
Where [6] appears, read: LTC4 release, read-out: BMMC anti-IgE LTC4 IC50.
[7] abbreviates: TNF-alpha release, read-out: BMMC anti-IgE TNF-alpha IC50.
The mark [8] stands for this setting: hexosaminidase release, read-out: BMMC anti-IgE hexos IC50.
[9] abbreviates: histamine release, read-out: BMMC anti-IgE histamine IC50.
Setting [10] is: hexosaminidase readout, read-out: CHMC anti-IgE Hexos.
Setting [11] is: tryptase readout, read-out: CHMC anti-IgE Tryptase.
Setting [12] is: LTC4, read-out: CHMC high density LTC4.
[13] abbreviates: TNF-alpha, read-out: CHMC high density TNF-alpha.
Where [14] appears, read: hexosaminidase release, read-out: CHMC high density hexos.
Where [15] appears, read: histamine release, read-out: CHMC high density histamine.
[16] abbreviates: tryptase release, read-out: CHMC high density tryptase.
Setting [17] is: IL-13, read-out: CHMC high density IL-13.

Structures are written as SMILES. Where two headings read alike, the source gives them in different places.

Take `O=C1COc2ccc(Nc3ncc(F)c(Nc4cccc(O)c4)n3)cc2N1` [Compound R909238, N2-(1,4-Benzoxazin-3-on-6-yl)-5-fluoro-N4-(3-hydroxyphenyl)-2,4-pyrimidinediamine]: the IC50 in test [1] (setting [5]) is under 220 nM; in test [1] (setting [6]), 521 nM; in test [1] (setting [7]) it was 432 nM; in test [1] (setting [8]), under 220 nM; in test [1] (setting [9]), under 220 nM.
On to `CCOC(=O)c1cccc(Nc2ncc(F)c(Nc3cccc(C(=O)OCC)c3)n2)c1` [Compound R926228, N2,N4-Bis(3-ethoxycarbonylphenyl)-5-fluoro-2,4-pyrimidinediamine], for which the IC50 in test [2] (setting [10]) and in test [1] (setting [8]) was over 10000 nM each time.
Regarding `CCc1ccc(Nc2ncc(F)c(Nc3ccc(CC)cc3)n2)cc1` [Compound R926234, N2,N4-Bis(4-ethylphenyl)-5-fluoro-2,4-pyrimidinediamine], the IC50 in test [2] (setting [10]) and in test [1] (setting [8]) was over 10000 nM each time.
In the case of `CCc1ccc(Nc2ncc(F)c(Nc3ccc4c(c3)OCCO4)n2)cc1` [Compound R926237, N4-(3,4-Ethylenedioxyphenyl)-N2-(4-ethylphenyl)-5-fluoro-2,4-pyrimidinediamine], the results for the IC50 in test [2] (setting [11]), in test [3] and in test [1] (setting [8]) were 1210 nM, 6200 nM and 1900 nM, respectively.
`O=C(NCCO)c1cc2cc(Nc3ncc(F)c(Nc4ccc5c(c4)OCCO5)n3)ccc2o1` [Compound R926498, N4-(3,4-Ethylenedioxyphenyl)-5-fluoro-N2-[2-(N-2-hydroxyethylamino)carbonylbenzofuran-5-yl]-2,4-pyrimidinediamine]: the IC50 in test [2] (setting [11]) was 209 nM; in test [3] it was over 10000 nM; in test [1] (setting [5]) it was under 220 nM; in test [1] (setting [6]), 995 nM; in test [1] (setting [7]), 614 nM; in test [1] (setting [8]), under 220 nM. In test [1] (setting [9]), the IC50 turned out to be 515 nM.
As for `COC(=O)C1Cc2cc(Nc3ncc(F)c(Nc4ccc(OC(C)C)cc4)n3)ccc2O1` (centres unmarked) [Compound R926706, 5-Fluoro-N2-(2,3-dihydro-2-(methoxycarbonyl)benzofuran-5-yl)-N4-(4-isopropoxyphenyl)-2,4-pyrimidinediamine], the IC50 is 1490 nM in test [4] (setting [12]); over 10000 nM in test [4] (setting [13]); over 2000 nM in test [4] (setting [14]); over 10000 nM in test [4] (setting [15]); over 10000 nM in test [4] (setting [16]); 78 nM in test [2] (LTC4 readout, read-out: CHMC anti-IgE LTC4). The results for the IC50 in test [2] (setting [11]) and in test [3] were 70 nM and 2410 nM, respectively.
As for `OCc1cc2cc(Nc3ncc(F)c(Nc4cccc(O)c4)n3)ccc2o1` [Compound R926707, 5-Fluoro-N2-[2-(hydroxymethyl)benzofuran-5-yl]-N4-(3-hydroxyphenyl)-2,4-pyrimidinediamine], the IC50 in test [2] (setting [11]) is 214 nM; in test [3], over 10000 nM; in test [1] (setting [5]) it was under 56 nM; in test [1] (setting [6]) it was 390 nM; in test [1] (setting [7]), 88 nM; in test [1] (setting [8]), under 56 nM. The IC50 in test [1] (setting [9]) was under 56 nM.
For the molecule `Cc1cc(Nc2ncc(F)c(Nc3cc(C)c(O)c(Cl)c3)n2)cc(Cl)c1O` [Compound R940216, N2,N4-Bis-(3-chloro-4-hydroxy-5-methylphenyl)-5-fluoro-2,4-pyrimidinediamine], the IC50 in test [4] (setting [17]) was 3010 nM; in test [4] (setting [12]) it was under 1100 nM; in test [4] (setting [13]) it was 3190 nM; in test [4] (setting [14]), under 1100 nM; in test [4] (setting [15]) it was 1180 nM; in test [4] (setting [16]), under 1100 nM. Moreover, the values for the IC50 in test [2] (setting [11]) and in test [3] were 268 nM and 7300 nM, respectively.
In the case of `Nc1cc(Cl)cc(Nc2ncc(F)c(Nc3cc(N)cc(Cl)c3)n2)c1` [Compound R950141, N2,N4-Bis(3-amino-5-chlorophenyl)-5-fluoro-2,4-pyrimidinediamine], the IC50 in test [4] (setting [17]) was 798 nM; in test [4] (setting [12]), 201 nM; in test [4] (setting [13]) it was 1060 nM; in test [4] (setting [14]) it was 567 nM; in test [4] (setting [15]), 627 nM; in test [4] (setting [16]) it was 618 nM. Further, the IC50 in test [2] (setting [11]) was 310 nM; in test [3], over 10000 nM.
